± gives the standard deviation of the averaged measurements.
How the values were obtained:
Conditions in all cases: 72 h
Calu-3 [1] = assay: cell viability relative to DMSO; higher = less toxic
Vero E6 [2] = assay: as above
Caco-2 [3] = assay: as above
Calu-3 [4] = assay: relative viability EC50 (midpoint between 100% and the lowest measured viability); higher = less toxic
Vero E6 [5] = assay: as above
Caco-2 [6] = assay: as above
Calu-3 [7] = assay: drug sensitivity score (DSS) for viability; higher = more toxic; extreme values may be limits of the assay
Vero E6 [8] = assay: as above
Caco-2 [9] = assay: as above
U2OS [10] = assay: as above
HepG2 [11] = assay: as above
U2OS [12] = assay: cell viability relative to DMSO; higher = less toxic
HepG2 [13] = assay: as above
U2OS [14] = assay: relative viability EC50 (midpoint between 100% and the lowest measured viability); higher = less toxic

| Compound | cell viability (Calu-3 [1]; 1 nM) [%] | cell viability (Calu-3 [1]; 10 nM) [%] | cell viability (Calu-3 [1]; 100 nM) [%] | cell viability (Calu-3 [1]; 1000 nM) [%] | cell viability (Calu-3 [1]; 10000 nM) [%] | cell viability (Vero E6 [2]; 1 nM) [%] | cell viability (Vero E6 [2]; 10 nM) [%] | cell viability (Vero E6 [2]; 100 nM) [%] | cell viability (Vero E6 [2]; 1000 nM) [%] | cell viability (Vero E6 [2]; 10000 nM) [%] | cell viability (Caco-2 [3]; 1 nM) [%] | cell viability (Caco-2 [3]; 10 nM) [%] | cell viability (Caco-2 [3]; 100 nM) [%] | cell viability (Caco-2 [3]; 1000 nM) [%] | cell viability (Caco-2 [3]; 10000 nM) [%] | relative viability EC50 (Calu-3 [4]) [µM] | relative viability EC50 (Vero E6 [5]) [µM] | relative viability EC50 (Caco-2 [6]) [µM] | drug sensitivity score (Calu-3 [7]) | drug sensitivity score (Vero E6 [8]) | drug sensitivity score (Caco-2 [9]) | drug sensitivity score (U2OS [10]) | drug sensitivity score (HepG2 [11]) | cell viability (U2OS [12]; 1 nM) [%] | cell viability (U2OS [12]; 10 nM) [%] | cell viability (U2OS [12]; 100 nM) [%] | cell viability (U2OS [12]; 1000 nM) [%] | cell viability (U2OS [12]; 10000 nM) [%] | cell viability (HepG2 [13]; 1 nM) [%] | cell viability (HepG2 [13]; 10 nM) [%] | cell viability (HepG2 [13]; 100 nM) [%] | cell viability (HepG2 [13]; 1000 nM) [%] | cell viability (HepG2 [13]; 10000 nM) [%] | relative viability EC50 (U2OS [14]) [µM] |
| --- | --- | --- | --- | --- | --- | --- | --- | --- | --- | --- | --- | --- | --- | --- | --- | --- | --- | --- | --- | --- | --- | --- | --- | --- | --- | --- | --- | --- | --- | --- | --- | --- | --- | --- |
| CCN1CCN(C(=O)N[C@@H](C(=O)N[C@@H]2C(=O)N3C(C(=O)O)=C(CSc4nnnn4C)CS[C@H]23)c2ccc(O)cc2)C(=O)C1=O [cefoperazone] | 89.8 | 101 | 97 | 97.1 | 102 | 96.7 | 104 | 99.5 | 106 | 98.4 | 98.5 | 107 | 102 | 100 | 99.6 | > 10 | > 10 | > 10 | 0 | 0 | 0 | – | – | – | – | – | – | – | – | – | – | – | – | – |
| O=C(/C=C/c1ccc(O)c(O)c1)O[C@@H]1C[C@](O)(C(=O)O)C[C@@H](O)[C@H]1O [chlorogenic-acid] | – | – | – | – | – | – | – | – | – | – | – | – | – | – | – | – | – | – | 0 | 0 | – | 0 | 0 | – | – | – | – | – | – | – | – | – | – | – |
| C[C@H]1[C@H](C)CC[C@]2(C(=O)O)CC[C@]3(C)C(=CC[C@@H]4[C@@]5(C)C[C@@H](O)[C@H](O)C(C)(C)[C@@H]5CC[C@]43C)[C@H]12 [corosolic-acid] | 96.8 | 106 | 103 | 95.3 | 99.8 | 101 | 104 | 99.7 | 104 | 103 | 107 | 110 | 102 | 108 | 99.6 | > 10 | > 10 | > 10 | 0 | 0 | 0 | – | – | – | – | – | – | – | – | – | – | – | – | – |
| C=C1C[C@@]2(O)O[C@@]3(C[C@H]2C(C)C)[C@@H](C)CC[C@@H]13 [curcumol] | 96.4 | 107 | 111 | 101 | 106 | 100 | 101 | 97.1 | 91.9 | 102 | 108 | 95.3 | 93.6 | 97.3 | 103 | > 10 | > 10 | > 10 | 0 | 0 | 0 | – | – | – | – | – | – | – | – | – | – | – | – | – |
| Oc1ccc(OC2CCCCO2)cc1 (stereo unspecified) [deoxyarbutin] | 98.1 | 98.2 | 97.4 | 110 | 92.9 | – | – | – | – | – | 89.2 | 99.1 | 99.1 | 97.3 | 104 | > 10 | – | > 10 | 0 | – | 0 | – | – | – | – | – | – | – | – | – | – | – | – | – |
| CCOc1ccc(Cc2nccc3cc(OCC)c(OCC)cc23)cc1OCC [ethaverine] | 98.8 | 100 | 101 | 105 | 69.3 | 116 | 90.6 | 103 | 95.2 | 90.9 | 89.5 | 87.4 | 90.3 | 82.9 | 77.3 | – | > 10 | > 10 | 1.1 | 0 | 3.6 | 0.3 | 5.1 | 93.3 | 106 | 95.4 | 96.6 | 86.1 | 86.2 | 91.2 | 105 | 76.5 | 57.3 | > 10 |
| COc1cc(/C=C/C(=O)O)ccc1O [ferulic-acid] | 93.8 | 98.6 | 103 | 95.6 | 94.2 | 94 | 107 | 94.5 | 96.2 | 107 | 99 | 97.8 | 96.4 | 92.2 | 103 | > 10 | > 10 | > 10 | 0 | 0 | 0 | 0 | – | 97.8 | 102 | 99.9 | 99.3 | 101 | – | – | – | – | – | > 10 |
| C/C=C(/C)C(=O)O[C@H]1C(C)=C[C@]23C(=O)[C@@H](C=C(CO)[C@@H](O)[C@]12O)[C@H]1[C@@H](C[C@H]3C)C1(C)C [ingenol-mebutate] | 117 | 110 | 96.6 | 102 | 105 | 99.2 | 83.9 | 54.7 | 53 | 51.7 | 109 | 110 | 89.8 | 81.8 | 84.6 | > 10 | – | > 10 | 0 | 16.5 | 3.2 | 0.8 | 12 | 101 | 88.5 | 75.2 | 89.1 | 93.4 | 102 | 86.4 | 66.4 | 70.7 | 77.7 | > 10 |
| O=C(O)c1nn(Cc2ccc(Cl)cc2Cl)c2ccccc12 [lonidamine] | 98.5 | 96.2 | 89.8 | 101 | 116 | 98.8 | 102 | 102 | 95.8 | 95.8 | 95.3 | 107 | 94.1 | 105 | 96.4 | > 10 | > 10 | > 10 | 0 | 0 | 0 | 0 | – | 100 | 110 | 98 | 111 | 98 | – | – | – | – | – | > 10 |
| CC1COc2c(N3CCN(C)CC3)c(F)cc3c(=O)c(C(=O)O)cn1c23 (stereo unspecified) [ofloxacin] | – | – | – | – | – | – | – | – | – | – | – | – | – | – | – | – | – | – | 0 | 0 | – | 0 | 0.85 ± 1.2 | – | – | – | – | – | – | – | – | – | – | – |
| COc1ccc(C(C)=O)c(O)c1 [paeonol] | 95.6 | 95.9 | 91.2 | 99.8 | 105 | 95.4 | 98.7 | 96.9 | 94.1 | 106 | 96.6 | 96 | 103 | 96.5 | 110 | > 10 | > 10 | > 10 | 0 | 0 | 0 | 0 | – | 95 | 96.8 | 95.8 | 95.8 | 97.7 | – | – | – | – | – | > 10 |
| NC(=S)N/N=C/c1ccncc1 [perchlozone] | 104 | 100 | 105 | 95.6 | 100 | 93.9 | 98.9 | 93.7 | 99.2 | 108 | 97.2 | 100 | 91.1 | 106 | 92.6 | > 10 | > 10 | > 10 | 0 | 0 | 0 | 0 | – | 102 | 98.4 | 101 | 104 | 106 | – | – | – | – | – | > 10 |
| CC(=O)O[C@H]1CC[C@@]2(C)C(=CC[C@@H]3[C@@H]2CC[C@]2(C)C(=O)CC[C@@H]32)C1 [prasterone-acetate] | – | – | – | – | – | – | – | – | – | – | – | – | – | – | – | – | – | – | 0 | 0 | – | 0 | 0 | – | – | – | – | – | – | – | – | – | – | – |
| O=C1c2ccccc2-c2n[nH]c3cccc1c23 [pyrazolanthrone] | 94.9 | 95.7 | 92.4 | 100 | 98.6 | 94.7 | 102 | 99.8 | 106 | 105 | 111 | 92.3 | 99.4 | 102 | 97.9 | > 10 | > 10 | > 10 | 0 | 0 | 0 | – | 3.3 | – | – | – | – | – | 101 | 80.2 | 96.8 | 82.4 | 71.5 | – |
| CN1CCN(CCOc2cc(OC3CCOCC3)c3c(Nc4c(Cl)ccc5c4OCO5)ncnc3c2)CC1 [saracatinib] | 87.7 | 116 | 95 | 42.3 | 9.6 | 97.5 | 97.1 | 102 | 75.2 | 21 | 107 | 102 | 102 | 84.4 | 63.8 | 0.7 | 1.37 | – | 12 | 8 | 3.8 | 5.2 | 3.3 | 98.6 | 102 | 88.8 | 78.9 | 47.5 | 100 | 101 | 107 | 80.2 | 72.1 | 1.09 |
| Cc1cc(NS(=O)(=O)c2ccc(N)cc2)no1 [sulfamethoxazole] | – | – | – | – | – | – | – | – | – | – | – | – | – | – | – | – | – | – | 0 | – | – | 0 | 0 | – | – | – | – | – | – | – | – | – | – | – |
| CCC(CC)C(c1ccc(Nc2nc3ccccc3s2)cc1)n1cncn1 (stereo unspecified) [talarozole] | 100 | 104 | 103 | 109 | 104 | 108 | 101 | 99.3 | 99.1 | 105 | 94.1 | 104 | 96 | 103 | 67.8 | > 10 | > 10 | – | 0 | 0 | 1.2 | 0 | 1.6 | 104 | 104 | 101 | 102 | 93.3 | 92.3 | 92.5 | 104 | 102 | 63.7 | > 10 |
| Cn1ncnc1[C@H]1c2n[nH]c(=O)c3cc(F)cc(c23)N[C@@H]1c1ccc(F)cc1 [talazoparib] | 105 | 84.3 | 93.3 | 68.9 | 58.2 | 95.1 | 97.6 | 77.6 | 66.3 | 54.5 | 105 | 96.3 | 93.7 | 82.7 | 85.9 | – | – | > 10 | 6.3 | 8.7 | 2.1 | – | 8.5 | – | – | – | – | – | 98.8 | 89.3 | 77.3 | 71.4 | 50.1 | – |
| CN1CCN(CCCN2c3ccccc3Sc3ccc(C(F)(F)F)cc32)CC1 [trifluoperazine] | 103 | 99.3 | 102 | 101 | 72.2 | 95.5 | 103 | 105 | 88.7 | 76.2 | 92 | 86.1 | 84.3 | 82.6 | 83 | – | > 10 | > 10 | 1 | 2.2 | 4.6 | 0.4 | 3.5 | 97.4 | 100 | 101 | 98 | 85.5 | 106 | 89.7 | 98 | 92 | 56.6 | > 10 |
